From patent publication EP0970121B1, “PEPTIDE FRAGMENTS OF MYELIN BASIC PROTEIN, THEIR PHARMACEUTICAL COMPOSITIONS AND THEIR USE IN TREATING MULTIPLE SCLEROSIS” (The Governors of the University of Alberta, priority 1997, dated 1998)
“Also recorded” adds a separate entry of the source. Where no end group is shown, it is not given here.

Legend:
[1] = test system: anti-MBP purified from CSF of MS patients; assay: In vitro neutralization of purified anti-MBP (liquid phase assay, then solid phase radioimmunoassay); assay type: binding, human; set-up: key to REACTIVITY WITH ANTI-MBP: + +: complete neutralization; +: partial neutralization; -: insignificant reactivity; details: for REACTIVITY WITH ANTI-MBP: purified anti-MBP, peptides 0-10.000 ng, h-MBP 0-1000 ng, 1.5 hours incubation; for neutralization of purified anti-MBP: pooled anti-MBP from 10 different MS patients, peptides up to 10.000 ng, MBP and negative antigen controls up to 1000 ng
Method: (§1) Constant amounts of anti-MBP (15 radioactivity binding units corresponding to 100 for scale expansion purposes = %0) were incubated with increasing amounts of h-MBP (0-1000 ng) or individual peptides of MBP (0-10.000 ng) in a liquid phase assay and after 1.5 hours incubation, free anti-MBP levels were determined in all mixtures. Anti-MBP isolated from 7 individual MS patients or pooled anti-MBP from 10 different MS patients were used in neutralization experiments. Calf thymus histone and human serum albumin were used as negative antigen controls (range: 10-1000 ng). One monoclonal antibody (MAb) to peptide MBP64-78 and a polyclonal rabbit antiserum to peptide MBP1-8 were used as positive antibody controls (Groome, N., Harland, J., and Dawkes, A., Neurochem Int 7:309-317, 1985, Barry, R., Payton. M., and Groome, N., Neurochem Int 2:291-300. 1991). Another mouse monoclonal antibody to epitope 45-50 was used as negative antibody control.
Anti-MBP levels were determined by a solid phase radioimmunoassay with human MBP (Warren, K.G. and Catz, I., Ann Neurol 209:20-25, 1986; Warren, K.G. and Catz, I., Ann Neurol 21:183-187, 1987; and Warren, K.G. and Catz, I., J Neurol Sci 91:143-151. 1989). Free anti-MBP levels were measured in all fractions from affinity chromatography and in all neutralization mixtures. All individual samples were run in quadruplicate using the same iodinated material in order to minimize between-assay variability.

MS patients = assay: Monitoring for adverse effects after peptide administration; assay type: in vivo, human
Method: After determining that peptide MBP75-95 neutralized F anti-MBP in vivo for periods in excess of 7 days, it was elected to repeatedly inoculate 10 mg MBP75-95 into the spinal fluid at weekly intervals for 10 weeks. This experiment was conducted, in 3 different patients with chronic progressive MS who have not participated in the single peptide injection project and volunteered for this study. F and B anti-MBP were determined 1-2 weeks prior to the first inoculation, prior to and 30 minutes following each of the 10 injections and again 1 month after the last injection. Cell counts, total protein, glucose, IgG and albumin levels were determined in all CSFs obtained before each of the 10 injections. Prior to the first and after the last injection blood was obtained and analyzed for electrolytes, creatinine, cardiac and liver enzymes and hematology panel.
Blood was obtained before injection as well as 16 and 30 days later and analyzed for electrolytes, creatinine, cardiac and liver enzymes and hematology panel. Spinal fluid was monitored for cell counts, total protein, glucose, IgG and albumin levels.

[2] = test system: polyclonal rabbit antiserum to peptide MBP1-8; assay: Positive antibody control of the neutralization assay; assay type: binding
Method: as §1

CSF anti-MBP = assay: Intrathecal peptide administration, CSF anti-MBP by radioimmunoassay; assay type: in vivo, human
Method: Anti-MBP levels were determined by a solid phase radioimmunoassay with human MBP coated on Immulon microtiter wells. Immulon microtiter wells were coated with 100 µl of 10 µg/ml of MBP (1 µg/well) and incubated overnight at 37°C. After quenching with bovine serum albumin (BSA) and three water washes, the wells were stored at room temperature. Samples of 100 µl of CSF or tissue extracts diluted to 0.010 gm of IgG/l (with 0.01 M Barbitol Buffered Saline (BBS) pH 6.9-7.1. 0.5% BSA and 0.05% Tween 20) were incubated in MBP-coated wells for 1-2 hours at room temperature. After 5 buffer washes (with 0.01 M BBS, 0.5 BSA and 0.05% Tween 20), wells were incubated with goat anti-rabbit IgG-Fc specific (in 0.01 M BBS, 0.05% Tween 20, 0.5% BSA) for 1 hour at room temperature and then rinsed as above. Finally, ^125I-protein A (or ^125 I-protein G) was added and incubated for 1 hour at room temperature. When ^125I-protein G was used as a tracer, ovalbumin replaced BSA in assay buffer and for quenching. After three final water washes wells were individually counted. Results are expressed in radioactivity defined as: (counts of sample - counts of blank) ÷ (counts of total radioactivity - counts of blank). All samples are run in 10 replicate and counting time is 10 minutes in order to collect > 10,000 counts for any positive sample.
Prior to being assayed all CSF and/or tissue samples were diluted to a final IgG concentration of 0.010 g/l. F anti-MBP was detected directly in CSF or tissue extract while B levels of antibody were determined following acid hydrolysis of immune complexes with glycine HCl buffer pH 2.2. Non-specific binding was performed for each sample in uncoated wells. For epitope localization, synthetic peptides were firstly reacted with purified antibody in a liquid phase competitive assay and then anti-MBP was determined by radioimmunoassay in all resulting supernatants. Results of the combined competitive binding assay and radioimmunoassay were expressed as percent inhibition of synthetic peptide defined as 100 - radioactivity units. Samples were done in 10 replicates and counted for 10 minutes each in a LKB1275 Minigamma counter. […]
A Phase 1 experiment to determine the effect of synthetic peptide MBP75-95 on F and B titers of CSF anti-MBP was conducted. […] 14 patients volunteered for this study: eight patients were selected on the basis of their initial titre of F CSF anti-MBP (above 8 radioactivity units) (Table 2) to receive one intrathecal injection of either peptide MBP75-95 which bound anti-MBP in vitro or a non-binding control peptide MBP35-58 (Warren and Catz, 1993b). […] Cell counts, total protein, glucose, IgG and albumin levels were determined in all CSF samples obtained. F and B anti-MBP levels were determined by radioimmunoassay, as described above. […]

[3] = test system: F and B anti-MBP purified by affinity chromatography from CSF and MS brain tissue; assay: Competitive inhibition assay with decapeptides (MBP epitope localization); assay type: binding, human; details: purified F and B anti-MBP from MS brain tissue (Fig. 10); percent inhibition = 100 - radioactivity units
Method: Prior to being assayed all CSF and/or tissue samples were diluted to a final IgG concentration of 0.010 g/l. F anti-MBP was detected directly in CSF or tissue extract while B levels of antibody were determined following acid hydrolysis of immune complexes with glycine HCl buffer pH 2.2. Non-specific binding was performed for each sample in uncoated wells. For epitope localization, synthetic peptides were firstly reacted with purified antibody in a liquid phase competitive assay and then anti-MBP was determined by radioimmunoassay in all resulting supernatants. Results of the combined competitive binding assay and radioimmunoassay were expressed as percent inhibition of synthetic peptide defined as 100 - radioactivity units. Samples were done in 10 replicates and counted for 10 minutes each in a LKB1275 Minigamma counter. A pool of tissue-purified anti-MBP was used at 5 pre-established dilutions as positive controls. Pooled CSF from patients with non-neurological diseases was used as negative controls. Within assay reproducibility was between 3 and 5% and between assay variation was less than 7 %.
The peptide(s) producing maximum inhibition were considered to be most highly associated with the antibody binding site.

[4] = Solubility in normal saline

Substance: 18-32: synthetic peptide of human MBP sequence 18-32 (NSETNRGESEKKRNL; UniProt P02686 18-32, looked up, fragment)
- REACTIVITY WITH ANTI-MBP [1]: -

Substance: 26 - 40: synthetic peptide of human MBP sequence 26-40 (SEKKRNLGELSRTTS; UniProt P02686 26-40, looked up, fragment)
- REACTIVITY WITH ANTI-MBP [1]: -

Substance: 117 - 129: synthetic peptide of human MBP sequence 117-129 (LQTIQEDSAATSE; UniProt P02686 117-129, looked up, fragment)
- REACTIVITY WITH ANTI-MBP [1]: -

Substance: 141 - 155: synthetic peptide of human MBP sequence 141-155 (SQRHGSKYLATASTM; UniProt P02686 141-155, looked up, fragment)
- REACTIVITY WITH ANTI-MBP [1]: -

Substance: Cy 4 - 18: synthetic peptide of human MBP sequence 4-18 with cysteine (HAGKRELNAEKASTN; also: added cysteine, end not given here; UniProt P02686 4-18, looked up, fragment)
- REACTIVITY WITH ANTI-MBP [1]: -

Substance: Cy 11 - 24: synthetic peptide of human MBP sequence 11-24 with cysteine (NAEKASTNSETNRG; also: added cysteine, end not given here; UniProt P02686 11-24, looked up, fragment)
- REACTIVITY WITH ANTI-MBP [1]: -

Substance: Cy 51 - 64 Gly: synthetic peptide of human MBP sequence 51-64 with cysteine and Gly (ANQNNGTSSQDTAV; also: added cysteine and glycine, ends not given here; UniProt P02686 51-64, looked up, fragment)
- REACTIVITY WITH ANTI-MBP [1]: +

Substance: Cy 127 - 140: synthetic peptide of human MBP sequence 127-140 with cysteine (TSESLDVMASQKRP; also: added cysteine, end not given here; UniProt P02686 127-140, looked up, fragment)
- REACTIVITY WITH ANTI-MBP [1]: -

Substance: Cy 136 - 149: synthetic peptide of human MBP sequence 136-149 with cysteine (SQKRPSQRHGSKYL; also: added cysteine, end not given here; UniProt P02686 136-149, looked up, fragment)
- REACTIVITY WITH ANTI-MBP [1]: -

Substance: HHPARTAHYGSLPQK [MBP61-75]
- neutralization of purified anti-MBP [1]: partially neutralized
- REACTIVITY WITH ANTI-MBP [1]: +

Substance: KSHGRTQDENPVVHFFKNIVT [MBP75-95]
- adverse effects (MS patients; 500 mg intravenously over 30 minutes, patient 8M41): No adverse effects were observed
- adverse effects / systemic complications (MS patients; repeated intrathecal inoculations, electrolytes, cardiac-liver-kidney function, hematology): no adverse complications have occurred

Substance: MBP1-8: synthetic peptide of human MBP sequence 1-8 with cysteine (MGNHAGKR; also: added cysteine, end not given here; UniProt P02686 1-8, looked up, fragment)
- inhibition of MAb to peptide MBP 1-8 [2]: inhibited
- REACTIVITY WITH ANTI-MBP [1]: -

Substance: MBP35-58: non-binding, control synthetic peptide of human MBP residues 35-58 (LSRTTSEDNEVFGEADANQNNGTS; also: added cysteine, end not given here; UniProt P02686 35-58, looked up, fragment)
- F and B levels of CSF anti-MBP (CSF anti-MBP; one intrathecal injection of 1, 2.5, 5 and 10 mg, 24 hour experiment): remained unaffected; also recorded: remained unchanged
- F anti-MBP in CSF (CSF anti-MBP; one intrathecal injection, 5 mg): remained elevated at baseline level
- F anti-MBP in CSF (CSF anti-MBP; one intrathecal injection, 10 mg): persistently elevated
- CSF F anti-MBP over increasing doses (CSF anti-MBP; one intrathecal injection, increasing amounts 1, 2.5, 5 and 10 mg): did not react
- REACTIVITY WITH ANTI-MBP [1]: -

Substance: MBP51 -60: decapeptide of human MBP residues 51-60, negative control (ANQNNGTSSQ; UniProt P02686 51-60, looked up, fragment)
- percent inhibition of both F and B anti-MBP [3]: 0-10%

Substance: MBP 111 -120: decapeptide of human MBP residues 111-120, negative control (PSESDELQTI; UniProt P02686 111-120, looked up, fragment)
- percent inhibition of both F and B anti-MBP [3]: 0-10%

Substance: Thr Gln Asp Glu Asn Pro Val Val His Phe Phe Lys Asn Ile Val Thr Pro Arg (TQDENPVVHFFKNIVTPR; printed: Thr Gln Asp Glu Asn Pro Val Val His Phe Phe Lys Asn Ile Val Thr Pro Arg) [MBP80-97]
- neutralization of anti-MBP purified from 7 individual MS patients ([1]; anti-MBP of individual patients): completely neutralized
- neutralization of purified anti-MBP [1]: completely neutralized
- REACTIVITY WITH ANTI-MBP [1]: + +
- times less effective on a molar basis than intact MBP at causing inhibition ([1]; relative to intact MBP): approximately 100 times

Substance: VVHFFKNIVT [MBP86-95, Val Val His Phe Phe Lys Asn Ile Val Thr]
- solubility [4]: very low solubility
